Source: US7423158B2, “Amino-5-[4-(difluoromethoxy)phenyl]-5-phenylimidazolone compounds for the inhibition of β-secretase” (Wyeth, priority 2005, dated 2008)

Row | SMILES | melting point
1 | CN1C(=O)C(c2ccc(OC(F)F)cc2)(c2cccc(CCCCC#N)c2)N=C1N (centres unmarked) [Example 14, 5-(3-{2-Amino-4-[4-(difluoromethoxy)phenyl]-1-methyl-5-oxo-4,5-dihydro-1H-imidazol-4-yl}phenyl)pentanenitrile] | 65 °C
2 | C=C(F)CCc1cccc(C2(c3ccc(OC(F)F)cc3)N=C(N)N(C)C2=O)c1 (centres unmarked) [Example 17, 2-Amino-5-[4-(difluoromethoxy)phenyl]-5-[3-(3-fluorobut-3-en-1-yl)phenyl]-3-methyl-3,5-dihydro-4H-imidazol-4-one] | 58 to 60 °C
3 | CN1C(=O)C(c2ccc(OC(F)F)cc2)(c2cccc(CCCC(F)F)c2)N=C1N (centres unmarked) [Example 19, 2-Amino-5-[3-(4,4-difluorobutyl)phenyl]-5-[4-(difluoromethoxy)phenyl]-3-methyl-3,5-dihydro-4H-imidazol-4-one] | 54 to 57 °C
4 | CN1C(=O)C(c2ccc(OC(F)F)cc2)(c2cccc(CCCCO)c2)N=C1N (centres unmarked) [Example 21, 2-Amino-5-[4-(difluoromethoxy)phenyl]-5-[3-(4-hydroxybutyl)phenyl]-3-methyl-3,5-dihydro-4H-imidazol-4-one] | 63 to 66 °C
5 | COCCCc1cccc(C2(c3ccc(OC(F)F)cc3)N=C(N)N(C)C2=O)c1 (centres unmarked) [Example 24, 2-Amino-5-[4-(difluoromethoxy)phenyl]-5-[3-(3-methoxypropyl)phenyl]-3-methyl-3,5-dihydro-4H-imidazol-4-one] | 48 to 50 °C
6 | COCCCCc1cccc(C2(c3ccc(OC(F)F)cc3)N=C(N)N(C)C2=O)c1 (centres unmarked) [Example 28, 2-amino-5-[4-(difluoromethoxy)phenyl]-5-[3-(4-methoxybutyl)phenyl]-3-methyl-3,5-dihydro-4H-imidazol-4-one] | 36 to 39 °C
7 | CCCNC(=O)c1cccc(C2(c3ccc(OC(F)F)cc3)N=C(N)N(C)C2=O)c1 (centres unmarked) [Example 29, 3-{2-Amino-4-[4-(difluoromethoxy)phenyl]-1-methyl-5-oxo-4,5-dihydro-1H-imidazol-4-yl}-N-propylbenzamide] | 93 to 96 °C
8 | CN1C(=O)C(c2ccc(OC(F)F)cc2)(c2cccc(COCCF)c2)N=C1N (centres unmarked) [Example 30, 2-Amino-5-[4-(difluoromethoxy)phenyl]-5-{3-[(2-fluoroethoxy)methyl]phenyl}-3-methyl-3,5-dihydro-4H-imidazol-4-one] | 40 to 43 °C
9 | CN1C(=O)C(c2ccc(OC(F)F)cc2)(c2cccc(COCCC(F)(F)F)c2)N=C1N (centres unmarked) [Example 31, 2-amino-5-[4-(difluoromethoxy)phenyl]-3-methyl-5-{3-[(3,3,3-trifluoropropoxy)methyl]phenyl}-3,5-dihydro-4H-imidazol-4-one] | 46 to 48 °C
10 | COCc1cccc(C2(c3ccc(OC(F)F)cc3)N=C(N)N(C)C2=O)c1 (centres unmarked) [Example 32, 2-amino-5-[4-(difluoromethoxy)phenyl]-5-[3-(methoxymethyl)phenyl]-3-methyl-3,5-dihydro-4H-imidazol-4-one] | 70 to 72 °C
11 | CCCCOCc1cccc(C2(c3ccc(OC(F)F)cc3)N=C(N)N(C)C2=O)c1 (centres unmarked) [Example 33, 2-amino-5-[3-(butoxymethyl)phenyl]-5-[4-(difluoromethoxy)phenyl]-3-methyl-3,5-dihydro-4H-imidazol-4-one] | 37 to 39 °C
12 | CN1C(=O)C(c2ccc(OC(F)F)cc2)(c2cccc(COCC3CC3)c2)N=C1N (centres unmarked) [Example 34, 2-amino-5-{3-[(cyclopropylmethoxy)methyl]phenyl}-5-[4-(difluoromethoxy)phenyl]-3-methyl-3,5-dihydro-4H-imidazol-4-one] | 47 to 50 °C
13 | CN1C(=O)C(c2ccc(OC(F)F)cc2)(c2cccc(OCCCC(F)(F)F)c2)N=C1N (centres unmarked) [Example 62, 2-amino-5-[4-(difluoromethoxy)phenyl]-3-methyl-5-[3-(4,4,4-trifluorobutoxy)phenyl]-3,5-dihydro-4H-imidazol-4-one] | 82 to 85 °C
14 | CN1C(=O)C(c2ccc(OC(F)F)cc2)(c2cccc(OCCCCF)c2)N=C1N (centres unmarked) [Example 64, 2-amino-5-[4-(difluoromethoxy)phenyl]-5-[3-(4-fluorobutoxy)phenyl]-3-methyl-3,5-dihydro-4H-imidazol-4-one] | 139 to 140 °C

The remaining lines, values ahead:

Row | melting point | SMILES
15 | 45 to 48 °C | CCOCc1cccc(C2(c3ccc(OC(F)F)cc3)N=C(N)N(C)C2=O)c1 (centres unmarked) [Example 35, 2-amino-5-[4-(difluoromethoxy)phenyl]-5-[3-(ethoxymethyl)phenyl]-3-methyl-3,5-dihydro-4H-imidazol-4-one]
16 | 40 to 43 °C | CCCOCc1cccc(C2(c3ccc(OC(F)F)cc3)N=C(N)N(C)C2=O)c1 (centres unmarked) [Example 36, 2-amino-5-[4-(difluoromethoxy)phenyl]-3-methyl-5-[3-(propoxymethyl)phenyl]-3,5-dihydro-4H-imidazol-4-one]
17 | 46 to 50 °C | CN1C(=O)C(c2ccc(OC(F)F)cc2)(c2cccc(COC(CF)CF)c2)N=C1N (centres unmarked) [Example 37, 2-amino-5-[4-(difluoromethoxy)phenyl]-5-(3-{[2-fluoro-1-(fluoromethyl)ethoxy]methyl}phenyl)-3-methyl-3,5-dihydro-4H-imidazol-4-one]
18 | 48 to 50 °C | CN1C(=O)C(c2ccc(OC(F)F)cc2)(c2cccc(COCC(F)(F)C(F)F)c2)N=C1N (centres unmarked) [Example 39, 2-amino-5-[4-(difluoromethoxy)phenyl]-3-methyl-5-{3-[(2,2,3,3-tetrafluoropropoxy)methyl]phenyl}-3,5-dihydro-4H-imidazol-4-one]
19 | 60 to 63 °C | CN1C(=O)C(c2ccc(OC(F)F)cc2)(c2cccc(CCF)c2)N=C1N (centres unmarked) [Example 55, 2-Amino-5-[4-(difluoromethoxy)phenyl]-5-[3-(2-fluoroethyl)phenyl]-3-methyl-3,5-dihydro-4H-imidazol-4-one]
20 | 161 to 162 °C | CN1C(=O)C(c2ccc(OC(F)F)cc2)(c2cccc(OCCCF)c2)N=C1N (centres unmarked) [Example 59, 2-Amino-5-[4-(difluoromethoxy)phenyl]-5-[3-(3-fluoropropox-1-yl)phenyl]-3-methyl-3,5-dihydro-4H-imidazol-4-one]
21 | 55 to 58 °C | C=CCCc1cc(C2(c3ccc(OC(F)F)cc3)N=C(N)N(C)C2=O)ccc1F (centres unmarked) [Example 84, 2-Amino-5-(3-but-3-en-1-yl-4fluorophenyl)-5-[4-(difluoromethoxy)phenyl]-3-methyl-3,5-dihydro-4H-imidazol-4-one]
22 | 172 to 174 °C | CN1C(=O)C(c2ccc(OC(F)F)cc2)(c2cccc(C3CC(=O)C3(C)C)c2)N=C1N (centres unmarked) [Example 87, 2-Amino-5-[4-(difluoromethoxy)phenyl]-5-[3-(2,2-dimethyl-3-oxocyclobutyl)phenyl]-3-methyl-3,5-dihydro-4H-imidazol-4-one]
23 | 68 to 70 °C | CN1C(=O)C(c2ccc(OC(F)F)cc2)(c2cccc(C3CC(=O)C3)c2)N=C1N (centres unmarked) [Example 88, 2-Amino-5-[4-(difluoromethoxy)phenyl]-3-methyl-5-[3-(3-oxocyclobutyl)phenyl]-3,5-dihydro-4H-imidazol-4-one]
24 | 186 to 190 °C | CN1C(=O)C(c2ccc(OC(F)F)cc2)(c2cccc(C3CC(O)C3)c2)N=C1N (centres unmarked) [Example 89, 2-Amino-5-[4-(difluoromethoxy)phenyl]-5-[3-(3-hydroxycyclobutyl)phenyl]-3-methyl-3,5-dihydro-4H-imidazol-4-one]
25 | 78 to 80 °C | CCOC(=O)C=C1CC(c2cccc(C3(c4ccc(OC(F)F)cc4)N=C(N)N(C)C3=O)c2)C1 (centres unmarked) [Example 90, Ethyl [3-(3-{2-Amino-4-[4-(difluoromethoxy)phenyl]-1-methyl-5-oxo-4,5-dihydro-1H-imidazol-4-yl}phenyl)cyclobutylidene]acetate]
26 | 68 to 70 °C | COC(=O)CC1CC(c2cccc(C3(c4ccc(OC(F)F)cc4)N=C(N)N(C)C3=O)c2)C1 (centres unmarked) [Example 92, methyl [3-(3-{2-amino-4-[4-(difluoromethoxy)phenyl]-1-methyl-5-oxo-4,5-dihydro-1H-imidazol-4-yl}phenyl)cyclobutyl]acetate]
